Experimental data from US10683272B2 (THE JOHNS HOPKINS UNIVERSITY, priority 2014, dated 2020).

Test: radiation dosimetry (OLINDA/EXM) from baboon PET data
Assay type: Reference Adult Male based on baboon PET imaging data
Experimental: For each time-point, the activity concentration (in Bq/cm^3) was measured in each of the 14 delineated organs and multiplied by the organ volume to obtain the total activity per time point per organ. The measured values were then decay-corrected and divided by the baboon organ mass, determined by the CT density and volume from the drawn contours, and the injected radioactivity to obtain the fraction of initial radioactivity per gram (FIA/g) for each time point and each organ. The baboon FIA/g values were then converted to human FIA (per organ) using the following equation (Schwartz et al., 2011; Woodard et al., 1975): […]
That approach assumes that the concentration of activity in a particular tissue relative to the overall concentration in the whole body is preserved across species (i.e., organ concentration/total body concentration is the same for baboon and man). The resulting human FIA values were plotted as a function of time (nine data points) for each organ and fit to a bi-exponential expression: FIA(t)=A1.e^−(λ1^bio^.t)+A2.e^−(Δ2^bio^.t) (2)
where A1, A2, λ1bio, and λ2bio are fit parameters. The sum of A1 and A2 give the back-extrapolated, time-zero fraction of administered radioactivity in each organ, and λ1bio and λ2bio are the biological clearance constants. The equation for the time-integrated activity coefficient [TIAC, previously known as residence time (Bolch et al., 2009) for each source organ was obtained, as its name implies, by integrating equation (2) and introducing a physical decay term, λφ, which depends on the isotope used:
TIACs were calculated for ^90Y, ^177Lu and ^86Y, with their corresponding physical decay constants: ^90Y λφ=0.01083 h^−1 (T1/2=64.0 h); ^177Lu λφ=0.00429 h^−1 (T1/2=161.52 h) and ^86Y λφ=0.04702 h^−1 (T1/2=14.74 h), respectively voiding. Radiation absorbed doses were obtained by converting time-integrated activity to absorbed doses according to the MIRD absorbed fraction methodology (Bolch et al., 2009) through the use of the OLINDA/EXM software (Stabin et al., 2005). The TIAC for the urinary bladder was obtained using the MIRD bladder model implemented in OLINDA/EXM. Input to that model requires the whole-body TIAC, which was obtained from the equation FIA(t)=A. e^(−λ^bio^t) fitted to whole-body retention kinetics. The voiding interval was set to 2 h. The TIACs were then input into OLINDA/EXM (Stabin et al., 2005), and the resulting absorbed dose per unit of radioactivity obtained for the 14 organs. The specific kidney model in OLINDA/EXM was used to obtain the renal cortex dose values. The absorbed dose from organs external to the kidney was added to the renal cortex dose calculated from the internal kidney model. The specific prostate model was used for prostate self-dose, and external dose to the bladder was added as a surrogate for the whole body to prostate dose. The self-dose component of the absorbed dose per unit activity for the salivary glands was obtained using 3D-RD Monte Carlo (EGSnrc) and a human CT with delineated salivary glands. The cross-dose component was taken by assuming the same cross-dose for a like-sized organ (pancreas).
Measured activity concentration (in Bq/cm^3) values per time point per organ were decay-corrected and divided by the baboon organ mass, determined by the CT density and volume from the drawn contours, and the injected radioactivity to obtain the fraction of initial radioactivity per gram (FIA/g) for each time point and each organ. The baboon FIA/g values were then converted to human FIA (per organ) using the related equation (Olszewski et al., 2004; Schwartz et al., 2011). The resulting human FIA values were then plotted as a function of time and fit to a bi-exponential expression and the value for the time-integrated activity coefficient (TIAC, previously known as residence time (Woodard et al., 1975)) for each source organ was calculated. […]

Structure (SMILES): O=C([O-])CN1CCN(CC(=O)[O-])CCN(CC(=O)[O-])C(Cc2ccc(NC(=S)NCCCCNC(=O)CCCCCCC(=O)NCCCC[C@H](NC(=O)N[C@@H](CCC(=O)O)C(=O)O)C(=O)O)cc2)CN(CC(=O)[O-])CC1.[86Y+3] (some centres unmarked) [^86Y-6]
- Organ absorbed dose, Adrenals (^86Y): 8.62E−02 mGy/MBq
- Organ absorbed dose, Brain (^86Y): 2.30E−02 mGy/MBq
- Organ absorbed dose, Breasts (^86Y): 4.52E−02 mGy/MBq
- Organ absorbed dose, Gallbladder wall (^86Y): 7.88E−02 mGy/MBq
- Organ absorbed dose, Heart wall (^86Y): 6.70E−02 mGy/MBq
- Organ absorbed dose, Kidneys (^86Y): 4.03E−01 mGy/MBq
- Organ absorbed dose, LLI wall (^86Y): 9.61E−02 mGy/MBq
- Organ absorbed dose, Liver (^86Y): 7.19E−02 mGy/MBq
- Organ absorbed dose, Lungs (^86Y): 5.98E−02 mGy/MBq
- Organ absorbed dose, Muscle (^86Y): 5.47E−02 mGy/MBq
- Organ absorbed dose, Osteogenic cells (^86Y): 7.19E−02 mGy/MBq
- Organ absorbed dose, Ovaries (^86Y): 9.48E−02 mGy/MBq
- Organ absorbed dose, Pancreas (^86Y): 8.09E−02 mGy/MBq
- Organ absorbed dose, Prostate (^86Y): 7.64E−02 mGy/MBq
- Organ absorbed dose, Red marrow (^86Y): 6.29E−02 mGy/MBq
- Organ absorbed dose, Renal cortex (^86Y): 4.24E−01 mGy/MBq
- Organ absorbed dose, Salivary glands (^86Y): 1.78E−01 mGy/MBq
- Organ absorbed dose, Skin (^86Y): 3.97E−02 mGy/MBq
- Organ absorbed dose, Small intestine (^86Y): 8.72E−02 mGy/MBq
- Organ absorbed dose, Spleen (^86Y): 7.23E−02 mGy/MBq
- Organ absorbed dose, Stomach wall (^86Y): 6.69E−02 mGy/MBq
- Organ absorbed dose, Testes (^86Y): 7.23E−02 mGy/MBq
- Organ absorbed dose, Thymus (^86Y): 5.38E−02 mGy/MBq
- Organ absorbed dose, Thyroid (^86Y): 5.07E−02 mGy/MBq
- Organ absorbed dose, ULI wall (^86Y): 8.56E−02 mGy/MBq
- Organ absorbed dose, Urinary bladder wall (^86Y): 6.17E−01 mGy/MBq
- Organ absorbed dose, Uterus (^86Y): 1.34E−01 mGy/MBq
- Time-integrated activity coefficient (residence time), Brain (^86Y): 1.41E−02 MBq-h/MBq
- Time-integrated activity coefficient (residence time), Heart contents (^86Y): 2.55E−02 MBq-h/MBq
- Time-integrated activity coefficient (residence time), Kidneys (^86Y): 4.08E−01 MBq-h/MBq
- Time-integrated activity coefficient (residence time), Liver (^86Y): 1.37E−01 MBq-h/MBq
- Time-integrated activity coefficient (residence time), Lungs (^86Y): 9.70E−02 MBq-h/MBq
- Time-integrated activity coefficient (residence time), Muscle (^86Y): 4.76E−01 MBq-h/MBq
- Time-integrated activity coefficient (residence time), Pancreas (^86Y): 6.37E−03 MBq-h/MBq
- Time-integrated activity coefficient (residence time), Prostate (^86Y): 1.15E−03 MBq-h/MBq
- Time-integrated activity coefficient (residence time), Remainder (^86Y): 3.64 MBq-h/MBq
- Time-integrated activity coefficient (residence time), Renal cortex (^86Y): 3.23E−01 MBq-h/MBq
- Time-integrated activity coefficient (residence time), Salivary Glands (^86Y): 4.45E−02 MBq-h/MBq
- Time-integrated activity coefficient (residence time), Small intestine (^86Y): 9.31E−03 MBq-h/MBq
- Time-integrated activity coefficient (residence time), Spleen (^86Y): 7.41E−03 MBq-h/MBq
- Time-integrated activity coefficient (residence time), Stomach (^86Y): 6.44E−03 MBq-h/MBq
- Time-integrated activity coefficient (residence time), ULI (^86Y): 1.99E−02 MBq-h/MBq
- Time-integrated activity coefficient (residence time), Ur. bladder contents (^86Y): 7.41E−01 MBq-h/MBq
- effective dose (^86Y, calculated in OLINDA/EXM): 0.099 mSv/MBq
- Organ absorbed dose, Adrenals (^90Y): 3.46E−02 mGy/MBq
- Organ absorbed dose, Brain (^90Y): 6.79E−03 mGy/MBq
- Organ absorbed dose, Breasts (^90Y): 3.46E−02 mGy/MBq
- Organ absorbed dose, Gallbladder wall (^90Y): 3.46E−02 mGy/MBq
- Organ absorbed dose, Heart wall (^90Y): 5.33E−02 mGy/MBq
- Organ absorbed dose, Kidneys (^90Y): 1.13 mGy/MBq
- Organ absorbed dose, LLI wall (^90Y): 3.46E−02 mGy/MBq
- Organ absorbed dose, Liver (^90Y): 4.99E−02 mGy/MBq
- Organ absorbed dose, Lungs (^90Y): 6.57E−02 mGy/MBq
- Organ absorbed dose, Muscle (^90Y): 1.32E−02 mGy/MBq
- Organ absorbed dose, Osteogenic cells (^90Y): 5.26E−02 mGy/MBq
- Organ absorbed dose, Ovaries (^90Y): 3.46E−02 mGy/MBq
- Organ absorbed dose, Pancreas (^90Y): 4.64E−02 mGy/MBq
- Organ absorbed dose, Prostate (^90Y): 4.78E−02 mGy/MBq
- Organ absorbed dose, Red marrow (^90Y): 2.41E−02 mGy/MBq
- Organ absorbed dose, Renal cortex (^90Y): 1.19 mGy/MBq
- Organ absorbed dose, Salivary glands (^90Y): 2.79E−01 mGy/MBq
- Organ absorbed dose, Skin (^90Y): 3.46E−02 mGy/MBq
- Organ absorbed dose, Small intestine (^90Y): 4.29E−02 mGy/MBq
- Organ absorbed dose, Spleen (^90Y): 1.64E−02 mGy/MBq
- Organ absorbed dose, Stomach wall (^90Y): 3.46E−02 mGy/MBq
